PMC10226046, “Prodrug Strategies for the Development of β-L-5-((E)-2-Bromovinyl)-1-((2S,4S)-2-(hydroxymethyl)-1,3-(dioxolane-4-yl))uracil (L-BHDU) against Varicella Zoster Virus (VZV)” (Journal of Medicinal Chemistry, 2023)
Read-outs that look alike come from different tables or passages of the source.

Experiments:
VZV-ORF57-Luc [1] = conditions: for EC50: cell-free VZV-ORF57-Luc, ARPE-19 cells, 72 hpi, bioluminescence imaging
in vitro = conditions: human
VZV-ORF57-Luc [2] = experiment: microbe, parasite or virus in culture; conditions: Human alphaherpesvirus 3, ARPE-19, cell-free VZV-ORF57-Luc, ARPE-19 cells, 72 hpi, bioluminescence imaging
[3] = Neutral red dye uptake cytotoxicity assay in ARPE-19 cells; conditions: human
VZV = conditions: cited from earlier work
VZV-ORF57-Luc [4] = experiment: microbe, parasite or virus in culture; assay type: cell-based, Varicella zoster virus
VZV-ORF57-ΔTK = experiment: microbe, parasite or virus in culture; assay type: cell-based, Varicella zoster virus
VZV-ORF57-ΔTS = experiment: microbe, parasite or virus in culture; assay type: cell-based, Varicella zoster virus
VZV-ORF57-ΔTKTS = experiment: microbe, parasite or virus in culture; assay type: cell-based, Varicella zoster virus
ARPE-19 cells = experiment: Neutral red dye uptake cytotoxicity assay in ARPE-19 cells; conditions: 72 h, neutral red assay
[5] = selectivity index = CC50/EC50, ARPE-19 cells
[6] = Human alphaherpesvirus 3, ARPE-19
[7] = cell-associated virus, ARPE-19 cells
[8] = cell-associated VZV-ORF57-Luc, ARPE-19 cells, read-out: EC50
[9] = cell-associated VZV-ORF57-ΔTK, ARPE-19 cells, read-out: EC50
[10] = cell-associated VZV-ORF57-ΔTS, ARPE-19 cells, read-out: EC50
[11] = cell-associated VZV-ORF57-ΔTKTS, ARPE-19 cells, read-out: EC50

Compound	SI (CC50/EC50) (VZV-ORF57-Luc [1])	EC50 (VZV-ORF57-Luc [2]) [nM]	SI (CC50/EC50) (VZV-ORF57-Luc [1]; [5])	CC50 at 72 h [3] [nM]	other results
CC(C)OC(=O)C(C)NP(=O)(OC[C@H]1OC[C@@H](n2cc(/C=C/Br)c(=O)[nH]c2=O)O1)Oc1ccccc1 (stereo in doubt) [Isopropyl ((((2S,4S)-4-(5-((E)-2-Bromovinyl)-2,4-dioxo-3,4-dihydropyrimidin-1(2H)-yl)-1,3-dioxolan-2-yl)methoxy)(phenoxy)phosphoryl)-L-alaninate]	>206	1690			CC50 (in vitro): > 100000 nM
CC(C)OC(=O)C(Cc1ccccc1)NP(=O)(OC[C@H]1OC[C@@H](n2cc(/C=C/Br)c(=O)[nH]c2=O)O1)Oc1ccccc1 (stereo in doubt) [Isopropyl ((((2S,4S)-4-(5-((E)-2-Bromovinyl)-2,4-dioxo-3,4-dihydropyrimidin-1(2H)-yl)-1,3-dioxolan-2-yl)methoxy)(phenoxy)phosphoryl)-L-phenylalaninate]	61	1530	61		CC50 at 72 h (in vitro): 93700 nM
CC(C)(N)C(=O)OC[C@H]1OC[C@@H](n2cc(/C=C/Br)c(=O)[nH]c2=O)O1.Cl [L-BHDU-2-aminoisobutyric acid (24), L-BHDU-5′-O-2-aminoisobutyric Acid Ester Hydrochloride]	>2597	38.5	>2597	> 100000	
CC(C)[C@H](N)C(=O)OC[C@H]1OC[C@@H](n2cc(/C=C/Br)c(=O)[nH]c2=O)O1.Cl [L-BHDU-D-valine (18), L-BHDU-5′-O-D-valyl Ester Hydrochloride]	>709	140	>709	> 100000	EC50 (VZV-ORF57-Luc [1]): 141 nM
C[C@@H](N)C(=O)OC[C@H]1OC[C@@H](n2cc(/C=C/Br)c(=O)[nH]c2=O)O1.Cl [L-BHDU-L-alanine (15), L-BHDU-5′-O-L-alanyl Ester Hydrochloride]	>2959	33.8	>2959	> 100000	
Cl.NC(=O)CC[C@H](N)C(=O)OC[C@H]1OC[C@@H](n2cc(/C=C/Br)c(=O)[nH]c2=O)O1 [L-BHDU-L-glutamine (23), L-BHDU-5′-O-L-glutamine Ester Hydrochloride]	>794	126	>794	> 100000	
CC[C@H](C)[C@H](N)C(=O)OC[C@H]1OC[C@@H](n2cc(/C=C/Br)c(=O)[nH]c2=O)O1.Cl [L-BHDU-L-isoleucine (21), L-BHDU-5′-O-L-isoleucine Ester Hydrochloride]	>1520	65.8	>1520	> 100000	
CC(C)C[C@H](N)C(=O)OC[C@H]1OC[C@@H](n2cc(/C=C/Br)c(=O)[nH]c2=O)O1.Cl [L-BHDU-L-leucine (20), L-BHDU-5′-O-L-leucine Ester Hydrochloride]	>2415	41.4	>2415	> 100000	
Cl.NCCCC[C@H](N)C(=O)OC[C@H]1OC[C@@H](n2cc(/C=C/Br)c(=O)[nH]c2=O)O1 [L-BHDU-L-lysine (25), L-BHDU-5′-O-L-lysine Ester Hydrochloride]		40.3	>2481	> 100000	
Cl.N[C@H](Cc1ccccc1)C(=O)OC[C@H]1OC[C@@H](n2cc(/C=C/Br)c(=O)[nH]c2=O)O1 [L-BHDU-L-phenylalanine (16), L-BHDU-5′-O-L-phenylalanyl Ester Hydrochloride]	>3484	28	>3484	> 100000	EC50 (VZV-ORF57-Luc [1]): 28.7 nM; SI (CC50/EC50) (VZV-ORF57-Luc [1]; selectivity index = CC50/EC50, ARPE-19 cells, listed as 16): > 3484
Cl.O=C(OC[C@H]1OC[C@@H](n2cc(/C=C/Br)c(=O)[nH]c2=O)O1)[C@@H]1CCCN1 [L-BHDU-L-proline (22), L-BHDU-5′-O-L-proline Ester Hydrochloride]	>1934	51.7	>1934	> 100000	
Cl.N[C@@H](Cc1c[nH]c2ccccc12)C(=O)OC[C@H]1OC[C@@H](n2cc(/C=C/Br)c(=O)[nH]c2=O)O1 [L-BHDU-L-tryptophan (19), L-BHDU-5′-O-L-tryptophan Ester Hydrochloride]	>1550	64.5	>1550	> 100000	
Cl.N[C@@H](Cc1ccc(O)cc1)C(=O)OC[C@H]1OC[C@@H](n2cc(/C=C/Br)c(=O)[nH]c2=O)O1 [L-BHDU-L-tyrosine (26), L-BHDU-5′-O-L-tyrosine Ester Hydrochloride]	>826	121	>826	> 100000	
Cl.NCC(=O)OC[C@H]1OC[C@@H](n2cc(/C=C/Br)c(=O)[nH]c2=O)O1 [L-BHDU-glycine (14), L-BHDU-5′-O-glycyl Ester Hydrochloride]	>2132	46.9	>2132	> 100000	
CC(C)[C@H](N)C(=O)OCCOCn1cnc2c(=O)[nH]c(N)nc21 [VACV, valacyclovir]					effect on VZV spread (VZV; 120 mg/kg/day, SCID-hu mouse): no effect; effect on VZV replication (VZV; SCID-hu mice): did not affect VZV replication
Nc1nc2c(ncn2COCCO)c(=O)[nH]1 [acyclovir (ACV), acyclovir, reference compound]				> 100000	
Nc1ccn(C[C@@H](CO)OCP(=O)(O)O)c(=O)n1 [cidofovir (CDV), cidofovir, reference compound]		482	>208	> 100000	EC50 (VZV-ORF57-Luc [4]; [6]): 370 nM; EC50 (VZV-ORF57-ΔTK; [6]): 420 nM; activity against VZV-ORF57-ΔTK (in words) (VZV-ORF57-ΔTK; [7]): effective; EC50 (VZV-ORF57-ΔTS; [6]): 10 nM; EC50 (VZV-ORF57-ΔTKTS; [6]): 1050 nM; activity against VZV-ORF57-ΔTKTS (in words) (VZV-ORF57-ΔTKTS; [7]): effective
CC(C)(C)OC(=O)N[C@@H](Cc1ccc(O)cc1)C(=O)O [compound 27]	>2481				
Bis(POC) Prodrug of L-BHDU-MP [POC-L-BHDU-MP (47)]	>2915		>2915		EC50 (VZV-ORF57-Luc [4]; [8]): 40 nM; EC50 (VZV-ORF57-ΔTK; [9]): > 2000 nM; EC50 (VZV-ORF57-ΔTS; [10]): 8.4 nM; EC50 (VZV-ORF57-ΔTKTS; [11]): > 2000 nM; EC50 (VZV-ORF57-Luc [1]): 34.3 nM; EC50 (VZV-ORF57-Luc [1]; listed as POC-L-BHDU-MP): 34 nM; SI (CC50/EC50) (VZV-ORF57-Luc [1]; selectivity index = CC50/EC50, ARPE-19 cells, listed as POC-L-BHDU-MP): > 2915; CC50 (ARPE-19 cells): > 100000 nM
L-BHDU-5′-[(2-hexadecyloxyethyl)phosphate] [HDP-L-BHDU-MP (39)]	35		35		EC50 (VZV-ORF57-Luc [1]): 526 nM; EC50 (VZV-ORF57-Luc [1]; listed as 39): 530 nM; CC50 (ARPE-19 cells): 18500 nM
L-BHDU-5′-[(2-octadecyloxyethyl)phosphate] [ODE-L-BHDU-MP (38)]	339		339		fold more potent compared to ACV (VZV-ORF57-Luc [4]; cell-associated VZV-ORF57-Luc): 9 fold; EC50 (VZV-ORF57-Luc [4]; [8]): 820 nM; EC50 (VZV-ORF57-ΔTK; [9]): > 2000 nM; EC50 (VZV-ORF57-ΔTS; [10]): 0.8 nM; EC50 (VZV-ORF57-ΔTKTS; [11]): > 2000 nM; EC50 (VZV-ORF57-Luc [1]): 100 nM; CC50 (ARPE-19 cells): 33900 nM
